# Test results as given in ChEMBL document CHEMBL5055685, “Discovery of the First Potent IDO1/IDO2 Dual Inhibitors: A Promising Strategy for Cancer Immunotherapy” (J Med Chem, 2021).
# The source made the active and inactive calls. No cut-off for these calls is given here.
# Assays:
# [1] = molecular target: Homeodomain-interacting protein kinase 3 (Homo sapiens) (UniProt Q9H422); assay: Inhibition of HIPK3 (unknown origin) at 1 uM
# [2] = molecular target: Protein kinase C theta type (Homo sapiens) (UniProt Q04759); assay: Inhibition of PKCtheta (unknown origin) at 1 uM
# [3] = molecular target: Ribosomal protein S6 kinase alpha-1 (Homo sapiens) (UniProt Q15418); assay: Inhibition of RSK1 (unknown origin) at 1 uM
# [4] = molecular target: Serine/threonine-protein kinase MAK (Homo sapiens) (UniProt P20794); assay: Inhibition of MAK (unknown origin) at 1 uM
# [5] = molecular target: Serine/threonine-protein kinase PAK 3 (Homo sapiens) (UniProt O75914); assay: Inhibition of PAK3 (unknown origin) at 1 uM
# [6] = molecular target: Serine/threonine-protein kinase OSR1 (Homo sapiens) (UniProt O95747); assay: Inhibition of OSR1 (unknown origin) at 1 uM
# PBMC = assay: Inhibition of IDO1/IDO2 in IFNgamma/LPS-stimulated human PBMCs assessed as reduction in kynurenine formation at 0.0001 to 10 uM pretreated with compound for 15 mins followed by IFNgamma/LPS stimulation by LC-MS/MS analysis; format: tissue-based; conditions: dose 0.0001-10 µM
# [7] = molecular target: Mitogen-activated protein kinase kinase kinase 12 (Homo sapiens) (UniProt Q12852); assay: Inhibition of DLK (unknown origin) at 1 uM
# [8] = Apparent permeability across apical to basolateral side in human Caco-2 cells; format: ADME, cell-based
# [9] = molecular target: CDK7/Cyclin H/MNAT1 (Homo sapiens) (UniProt P51946+P50613+P51948); assay: Inhibition of CDK7/cyclin-H/MNAT1 (unknown origin) at 1 uM; format: protein-complex assay
# [10] = molecular target: CDK1/Cyclin E (Homo sapiens) (UniProt P06493+P24864); assay: Inhibition of CDK1/cyclinE (unknown origin) at 1 uM; format: protein-complex assay
# [11] = molecular target: MAP kinase-activated protein kinase 5 (Homo sapiens) (UniProt Q8IW41); assay: Inhibition of MAPKAPK5 (unknown origin) at 1 uM
# [12] = molecular target: Serine/threonine-protein kinase SBK1 (Homo sapiens) (UniProt Q52WX2); assay: Inhibition of SBK1 (unknown origin) at 1 uM
# [13] = Apparent permeability across basolateral to apical side in human Caco-2 cells; format: ADME, cell-based
# [14] = molecular target: CDC7/DBF4 (Cell division cycle 7-related protein kinase/Activator of S phase kinase) (Homo sapiens) (UniProt Q9UBU7+O00311); assay: Inhibition of CDC7/DBF4 (unknown origin) at 1 uM; format: protein-complex assay
# [15] = molecular target: RAC-alpha serine/threonine-protein kinase (Homo sapiens) (UniProt P31749); assay: Inhibition of AKT1 (unknown origin) at 1 uM
# [16] = molecular target: Testis-specific serine/threonine-protein kinase 2 (Homo sapiens) (UniProt Q96PF2); assay: Inhibition of TSSK2 (unknown origin) at 1 uM
# [17] = molecular target: Ephrin type-A receptor 7 (Homo sapiens) (UniProt Q15375); assay: Inhibition of EPHA7 (unknown origin) at 1 uM
# [18] = molecular target: Vascular endothelial growth factor receptor 3 (Homo sapiens) (UniProt P35916); assay: Inhibition of FLT4 (unknown origin) at 1 uM
# [19] = molecular target: Activin receptor type-1-like (Homo sapiens) (UniProt P37023); assay: Inhibition of ALK1 (unknown origin) at 1 uM
# [20] = molecular target: Death-associated protein kinase 3 (Homo sapiens) (UniProt O43293); assay: Inhibition of ZIPK (unknown origin) at 1 uM
# Homo sapiens = species: Homo sapiens; assay: Inhibition of MLCK (unknown origin) at 1 uM
# [21] = molecular target: Serine/threonine-protein kinase VRK2 (Homo sapiens) (UniProt Q86Y07); assay: Inhibition of VRK2 (unknown origin) at 1 uM
# [22] = molecular target: CDK3/Cyclin E (Homo sapiens) (UniProt P24864+Q00526); assay: Inhibition of CDK3/cyclin-E (unknown origin) at 1 uM; format: protein-complex assay
# [23] = molecular target: Receptor-type tyrosine-protein kinase FLT3 (Homo sapiens) (UniProt P36888); assay: Inhibition of FLT3 (unknown origin) at 1 uM
# [24] = molecular target: Mitogen-activated protein kinase 12 (Homo sapiens) (UniProt P53778); assay: Inhibition of p38gamma (unknown origin) at 1 uM
# [25] = molecular target: Testis-specific serine/threonine-protein kinase 1 (Homo sapiens) (UniProt Q9BXA7); assay: Inhibition of STK22D (unknown origin) at 1 uM
# [26] = molecular target: MAP kinase-interacting serine/threonine-protein kinase 2 (Homo sapiens) (UniProt Q9HBH9); assay: Inhibition of MNK2 (unknown origin) at 1 uM
# [27] = molecular target: Serine/threonine-protein kinase N3 (Homo sapiens) (UniProt Q6P5Z2); assay: Inhibition of PKN3 (unknown origin) at 1 uM
# [28] = molecular target: Mitogen-activated protein kinase kinase kinase 10 (Homo sapiens) (UniProt Q02779); assay: Inhibition of MLK2 (unknown origin) at 1 uM
# HCT-116 [29] = assay: Antitumor immunity in BALB/c mouse xenografted with human HCT-116 cells assessed as late Treg cells in spleen by propidium iodide staining based flow cytometry analysis (reference value: 10.3 %); format: functional
# [30] = molecular target: Tau-tubulin kinase 2 (Homo sapiens) (UniProt Q6IQ55); assay: Inhibition of TTBK2 (unknown origin) at 1 uM
# [31] = molecular target: Serine/threonine-protein kinase N2 (Homo sapiens) (UniProt Q16513); assay: Inhibition of PKN2 (unknown origin) at 1 uM
# HCT-116 [32] = assay: Antitumor immunity in BALB/c mouse xenografted with human HCT-116 cells assessed as live Treg cells in tumor-draining lymph nodes by propidium iodide staining based flow cytometry analysis (reference value: 70.6 %); format: functional
# Mus musculus = assay: In vivo inhibition of IDO1/IDO2 in BALB/c mouse xenografted with human HCT-116 cells assessed as downregulation of Foxp3 mRNA expression in tumor by quantitative RT-PCR analysis; format: functional, organism-based
# [33] = molecular target: Serine/threonine-protein kinase PAK 2 (Homo sapiens) (UniProt Q13177); assay: Inhibition of PAK2 (unknown origin) at 1 uM
# [34] = molecular target: Serine/threonine-protein kinase BRSK2 (Homo sapiens) (UniProt Q8IWQ3); assay: Inhibition of BRSK2 (unknown origin) at 1 uM
# [35] = molecular target: Serine/threonine-protein kinase/endoribonuclease IRE2 (Homo sapiens) (UniProt Q76MJ5); assay: Inhibition of ERN2 (unknown origin) at 1 uM
# [36] = molecular target: Serine/threonine-protein kinase Chk2 (Homo sapiens) (UniProt O96017); assay: Inhibition of CHK2 (unknown origin) at 1 uM
# [37] = molecular target: Serine/threonine-protein kinase SIK1 (Homo sapiens) (UniProt P57059); assay: Inhibition of SIK1 (unknown origin) at 1 uM
# [38] = molecular target: Mitogen-activated protein kinase kinase kinase kinase 2 (Homo sapiens) (UniProt Q12851); assay: Inhibition of GCK (unknown origin) at 1 uM
# [39] = molecular target: High affinity nerve growth factor receptor (Homo sapiens) (UniProt P04629); assay: Inhibition of TRKA (unknown origin) at 1 uM
# Chain of Serine/threonine-protein kinase SIK1 (Homo sapiens) (P57059 whole entry): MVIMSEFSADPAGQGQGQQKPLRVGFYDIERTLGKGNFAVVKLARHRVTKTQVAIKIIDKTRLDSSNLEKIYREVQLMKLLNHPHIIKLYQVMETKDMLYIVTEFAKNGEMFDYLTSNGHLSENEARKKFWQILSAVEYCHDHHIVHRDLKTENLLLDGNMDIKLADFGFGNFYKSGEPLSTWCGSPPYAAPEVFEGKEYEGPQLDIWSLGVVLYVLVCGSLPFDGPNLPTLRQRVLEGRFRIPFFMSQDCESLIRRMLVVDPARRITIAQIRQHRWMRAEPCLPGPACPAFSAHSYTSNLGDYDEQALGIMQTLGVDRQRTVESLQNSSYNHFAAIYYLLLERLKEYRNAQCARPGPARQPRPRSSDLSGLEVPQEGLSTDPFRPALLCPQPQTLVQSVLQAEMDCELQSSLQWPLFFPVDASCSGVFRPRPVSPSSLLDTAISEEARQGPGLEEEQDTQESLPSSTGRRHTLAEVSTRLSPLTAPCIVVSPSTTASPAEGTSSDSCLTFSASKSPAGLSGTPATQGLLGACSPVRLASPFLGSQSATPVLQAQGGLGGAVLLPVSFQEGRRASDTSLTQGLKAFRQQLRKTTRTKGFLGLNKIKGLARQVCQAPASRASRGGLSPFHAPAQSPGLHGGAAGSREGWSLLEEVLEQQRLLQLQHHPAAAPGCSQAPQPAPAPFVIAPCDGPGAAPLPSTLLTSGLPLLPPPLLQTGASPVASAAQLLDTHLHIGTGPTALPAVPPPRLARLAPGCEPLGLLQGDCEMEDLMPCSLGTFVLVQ
# Chain of Death-associated protein kinase 3 (Homo sapiens) (O43293 whole entry, looked up): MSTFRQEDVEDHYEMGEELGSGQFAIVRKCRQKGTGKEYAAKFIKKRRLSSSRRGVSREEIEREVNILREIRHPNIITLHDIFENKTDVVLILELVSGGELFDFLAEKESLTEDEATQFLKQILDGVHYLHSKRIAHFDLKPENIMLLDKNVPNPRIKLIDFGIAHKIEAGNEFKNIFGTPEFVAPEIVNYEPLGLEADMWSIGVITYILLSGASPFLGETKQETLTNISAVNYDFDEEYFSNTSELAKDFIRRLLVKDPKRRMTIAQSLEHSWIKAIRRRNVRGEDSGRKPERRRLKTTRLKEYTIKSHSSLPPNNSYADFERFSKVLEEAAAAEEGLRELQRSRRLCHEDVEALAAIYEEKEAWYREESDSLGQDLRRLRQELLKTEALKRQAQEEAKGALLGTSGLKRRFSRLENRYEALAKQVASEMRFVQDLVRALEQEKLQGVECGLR
# Chain of RAC-alpha serine/threonine-protein kinase (Homo sapiens) (P31749 whole entry): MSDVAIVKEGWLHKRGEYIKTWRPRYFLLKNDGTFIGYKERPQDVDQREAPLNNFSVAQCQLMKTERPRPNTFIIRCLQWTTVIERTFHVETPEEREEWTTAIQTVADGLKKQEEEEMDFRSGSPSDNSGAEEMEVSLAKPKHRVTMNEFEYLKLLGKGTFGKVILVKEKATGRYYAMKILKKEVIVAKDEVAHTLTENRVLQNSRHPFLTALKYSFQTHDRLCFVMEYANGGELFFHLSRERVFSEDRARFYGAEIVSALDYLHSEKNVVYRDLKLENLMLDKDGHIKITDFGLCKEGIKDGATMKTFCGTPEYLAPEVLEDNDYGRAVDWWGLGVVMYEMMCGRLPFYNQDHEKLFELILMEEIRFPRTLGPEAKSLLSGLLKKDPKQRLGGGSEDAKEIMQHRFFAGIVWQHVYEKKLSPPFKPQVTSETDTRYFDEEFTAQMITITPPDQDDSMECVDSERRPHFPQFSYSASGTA
# Chain of Protein kinase C theta type (Homo sapiens) (Q04759 whole entry, looked up): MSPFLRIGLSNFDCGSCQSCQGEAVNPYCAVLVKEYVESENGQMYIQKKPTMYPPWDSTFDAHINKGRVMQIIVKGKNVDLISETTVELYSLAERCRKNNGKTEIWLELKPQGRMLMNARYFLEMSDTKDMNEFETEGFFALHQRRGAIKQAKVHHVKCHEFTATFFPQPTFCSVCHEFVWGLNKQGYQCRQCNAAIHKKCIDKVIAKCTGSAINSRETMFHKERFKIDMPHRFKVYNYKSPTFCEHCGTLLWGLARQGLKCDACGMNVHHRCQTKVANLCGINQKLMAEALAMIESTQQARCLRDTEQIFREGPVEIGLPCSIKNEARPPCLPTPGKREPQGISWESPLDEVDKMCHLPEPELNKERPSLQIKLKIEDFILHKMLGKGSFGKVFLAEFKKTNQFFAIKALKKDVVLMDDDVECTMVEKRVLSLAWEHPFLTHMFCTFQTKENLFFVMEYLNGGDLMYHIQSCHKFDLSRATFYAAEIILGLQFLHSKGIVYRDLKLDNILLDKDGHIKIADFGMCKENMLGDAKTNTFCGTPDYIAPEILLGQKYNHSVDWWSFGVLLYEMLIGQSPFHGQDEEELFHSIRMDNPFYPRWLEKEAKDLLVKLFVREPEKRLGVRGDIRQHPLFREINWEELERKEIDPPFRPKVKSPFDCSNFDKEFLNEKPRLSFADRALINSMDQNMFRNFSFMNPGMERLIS
# Chain of Ribosomal protein S6 kinase alpha-1 (Homo sapiens) (Q15418 whole entry): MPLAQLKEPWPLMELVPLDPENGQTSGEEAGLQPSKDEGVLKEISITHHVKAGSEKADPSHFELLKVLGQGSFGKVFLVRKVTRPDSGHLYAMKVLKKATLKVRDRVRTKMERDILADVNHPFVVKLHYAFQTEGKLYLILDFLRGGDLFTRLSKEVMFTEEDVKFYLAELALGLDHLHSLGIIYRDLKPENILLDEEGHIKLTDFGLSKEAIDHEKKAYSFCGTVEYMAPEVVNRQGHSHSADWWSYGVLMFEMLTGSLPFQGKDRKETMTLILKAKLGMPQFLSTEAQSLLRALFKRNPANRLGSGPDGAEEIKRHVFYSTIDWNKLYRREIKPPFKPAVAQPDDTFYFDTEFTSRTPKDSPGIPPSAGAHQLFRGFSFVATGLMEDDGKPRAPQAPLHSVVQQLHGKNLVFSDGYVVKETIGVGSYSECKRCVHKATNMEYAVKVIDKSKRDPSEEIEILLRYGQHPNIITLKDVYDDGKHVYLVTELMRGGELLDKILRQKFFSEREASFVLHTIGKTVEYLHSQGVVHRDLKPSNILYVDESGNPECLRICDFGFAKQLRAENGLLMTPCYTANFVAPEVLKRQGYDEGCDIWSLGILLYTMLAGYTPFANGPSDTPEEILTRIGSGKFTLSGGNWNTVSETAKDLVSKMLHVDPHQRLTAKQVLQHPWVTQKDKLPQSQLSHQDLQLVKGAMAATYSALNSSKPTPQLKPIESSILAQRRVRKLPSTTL
# Chain of Serine/threonine-protein kinase N3 (Homo sapiens) (Q6P5Z2 whole entry, looked up): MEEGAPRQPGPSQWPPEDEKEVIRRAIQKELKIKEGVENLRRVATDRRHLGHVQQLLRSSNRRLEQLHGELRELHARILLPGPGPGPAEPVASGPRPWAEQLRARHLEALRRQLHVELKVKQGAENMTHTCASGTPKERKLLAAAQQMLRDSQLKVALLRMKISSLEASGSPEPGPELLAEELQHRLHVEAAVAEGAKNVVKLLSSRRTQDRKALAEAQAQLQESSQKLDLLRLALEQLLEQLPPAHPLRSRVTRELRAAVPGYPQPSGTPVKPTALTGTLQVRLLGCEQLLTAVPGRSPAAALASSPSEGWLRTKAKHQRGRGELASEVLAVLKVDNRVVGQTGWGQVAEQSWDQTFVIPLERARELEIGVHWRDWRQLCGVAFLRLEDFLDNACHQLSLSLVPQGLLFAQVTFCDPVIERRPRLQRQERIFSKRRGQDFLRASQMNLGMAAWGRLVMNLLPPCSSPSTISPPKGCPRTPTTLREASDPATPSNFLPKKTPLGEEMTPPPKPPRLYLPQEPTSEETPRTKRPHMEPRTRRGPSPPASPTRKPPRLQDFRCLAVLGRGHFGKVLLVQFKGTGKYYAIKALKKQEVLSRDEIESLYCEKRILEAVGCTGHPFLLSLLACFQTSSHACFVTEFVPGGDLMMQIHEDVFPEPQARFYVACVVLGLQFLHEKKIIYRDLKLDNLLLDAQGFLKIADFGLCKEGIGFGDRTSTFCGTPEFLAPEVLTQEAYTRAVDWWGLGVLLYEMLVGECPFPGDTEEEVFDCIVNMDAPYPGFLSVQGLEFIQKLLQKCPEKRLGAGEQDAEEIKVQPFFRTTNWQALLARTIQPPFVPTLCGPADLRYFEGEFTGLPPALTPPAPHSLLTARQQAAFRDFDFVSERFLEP
# Chain of Serine/threonine-protein kinase SBK1 (Homo sapiens) (Q52WX2 whole entry): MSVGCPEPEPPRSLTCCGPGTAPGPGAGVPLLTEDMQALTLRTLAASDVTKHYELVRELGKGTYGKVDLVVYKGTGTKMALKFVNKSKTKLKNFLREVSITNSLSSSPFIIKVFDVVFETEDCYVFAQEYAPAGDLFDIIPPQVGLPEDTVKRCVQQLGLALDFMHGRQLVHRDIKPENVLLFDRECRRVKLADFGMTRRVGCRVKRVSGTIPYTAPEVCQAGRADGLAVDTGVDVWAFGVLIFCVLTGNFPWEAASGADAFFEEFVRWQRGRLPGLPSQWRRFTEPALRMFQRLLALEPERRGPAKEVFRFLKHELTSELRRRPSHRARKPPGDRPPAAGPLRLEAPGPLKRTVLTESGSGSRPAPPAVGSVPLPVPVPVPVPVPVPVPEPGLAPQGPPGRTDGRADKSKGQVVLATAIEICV
# Chain of MAP kinase-activated protein kinase 5 (Homo sapiens) (Q8IW41 whole entry): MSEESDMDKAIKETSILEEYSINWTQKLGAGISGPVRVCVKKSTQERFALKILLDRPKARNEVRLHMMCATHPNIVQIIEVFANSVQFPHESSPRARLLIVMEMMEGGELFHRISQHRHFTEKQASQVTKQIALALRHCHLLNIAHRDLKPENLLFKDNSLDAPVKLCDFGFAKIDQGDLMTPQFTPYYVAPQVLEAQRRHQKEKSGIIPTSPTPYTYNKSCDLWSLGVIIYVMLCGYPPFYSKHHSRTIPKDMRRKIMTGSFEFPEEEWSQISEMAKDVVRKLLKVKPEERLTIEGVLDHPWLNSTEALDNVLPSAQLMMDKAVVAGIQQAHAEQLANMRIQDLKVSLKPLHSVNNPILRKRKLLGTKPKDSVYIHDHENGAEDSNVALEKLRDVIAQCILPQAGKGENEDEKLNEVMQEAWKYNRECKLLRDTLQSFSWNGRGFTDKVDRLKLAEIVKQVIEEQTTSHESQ
smiles,measurement,setting,value
OCCOCc1cn(CCNc2nonc2/C(=N/O)Nc2ccc(F)c(Br)c2)nn1,inhibition,[1],inactive
same,inhibition,[2],inactive
same,inhibition,[3],inactive
same,inhibition,[4],inactive
same,inhibition,[5],inactive
same,inhibition,[6],inactive
same,inhibition,PBMC,Active
same,inhibition,[7],inactive
same,Papp A→B,[8],7.2 ×10⁻⁶ cm/s
same,inhibition,[9],inactive
same,inhibition,[10],inactive
same,inhibition,[11],inactive
same,inhibition,[12],inactive
same,Papp B→A,[13],46 ×10⁻⁶ cm/s
same,inhibition,[14],inactive
same,inhibition,[15],inactive
same,inhibition,[16],inactive
same,inhibition,[17],inactive
same,inhibition,[18],inactive
same,inhibition,[19],inactive
same,inhibition,[20],inactive
same,inhibition,Homo sapiens,inactive
same,inhibition,[21],inactive
same,inhibition,[22],inactive
same,inhibition,[23],inactive
same,inhibition,[24],inactive
same,inhibition,[25],inactive
same,inhibition,[26],inactive
same,inhibition,[27],inactive
same,inhibition,[28],inactive
same,Activity,HCT-116 [29],7.24%
same,inhibition,[30],inactive
same,inhibition,[31],inactive
same,Activity,HCT-116 [32],88.1%
same,inhibition,Mus musculus,Active
same,inhibition,[33],inactive
same,inhibition,[34],inactive
same,inhibition,[35],inactive
same,inhibition,[36],inactive
same,inhibition,[37],inactive
same,inhibition,[38],inactive
same,inhibition,[39],inactive
